Test systems include IGROV-1; UACC-62; ACHN; Malme-3M; HCT-116; OVCAR-8; OVCAR-5; SNB-75; CAKI-1; NCI/ADR-RES; SF-268; U-251; OVCAR-4; PC-3; 786-0; CCRF-CEM; EKVX; A498; RXF 393.
Assay in all cases: inhibition of tumour cell growth, NCI panel, 48 h

Structures are written as SMILES.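 A five-concentration, 48-hour dose response in 96-well plates underlies each endpoint, interpolated linearly between surrounding concentrations. GI50 is the concentration that inhibits growth by half.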 Activity calls are given as the source filed them. Rule as the data show it: active = GI50 up to about 1.1 µM and inactive = higher.

Take `O=C(OC1C(Oc2ccccc2COC(=O)C2(O)C=CCCC2=O)OC(CO)C(O)C1O)c1ccccc1` (stereo not given): the GI50 in the assay with IGROV-1 was 25.6 µM (inactive); in the assay with UACC-62, 40.2 µM (inactive); in the assay on ACHN it was 34.2 µM (inactive); in the assay on Malme-3M, 18 µM (inactive); with HCT-116, 45.9 µM (inactive); in the assay on OVCAR-8 it was 36.7 µM (inactive). Moreover, the GI50 in the assay with OVCAR-5 was 91.2 µM (inactive); with SNB-75 it was 7.13 µM (inactive); in the assay with CAKI-1 it was 4.11 µM (inactive); in the assay with NCI/ADR-RES it was 34.8 µM (inactive); in the assay on SF-268, 13.2 µM (inactive); with U-251, 20.8 µM (inactive). Moreover, the results for the GI50 in the assay with OVCAR-4, in the assay with PC-3 and with 786-0 were 41.2 µM (inactive), 28.4 µM (inactive) and 25.3 µM (inactive), respectively.
As for `COc1ccccc1NS(=O)(=O)c1ccc2ncn(NS(=O)(=O)c3ccc(Cl)cc3)c(=O)c2c1`, the GI50 in the assay on CCRF-CEM is 54.7 µM (inactive); in the assay on IGROV-1, > 100 µM (inactive); in the assay with UACC-62, 39.1 µM (inactive); with ACHN, > 100 µM (inactive); in the assay on Malme-3M, > 100 µM (inactive); with HCT-116, > 100 µM (inactive). In addition, the GI50 is > 100 µM (inactive) with OVCAR-8; 63 µM (inactive) in the assay on OVCAR-5; > 100 µM (inactive) with SNB-75; > 100 µM (inactive) with CAKI-1; > 100 µM (inactive) in the assay with NCI/ADR-RES; > 100 µM (inactive) with SF-268. The GI50 with U-251 is > 100 µM (inactive); in the assay with EKVX, > 100 µM (inactive); in the assay on OVCAR-4, > 100 µM (inactive); in the assay with PC-3, 5.51 µM (inactive); with 786-0 it was > 100 µM (inactive).
On to `Cc1cc(-c2[nH]c(C(=O)O)cc2I)on1`, for which the GI50 was 12.5 µM (inactive) in the assay with IGROV-1; 53.8 µM (inactive) with UACC-62; 91.4 µM (inactive) with ACHN; > 100 µM (inactive) in the assay with Malme-3M; 42 µM (inactive) with HCT-116; > 100 µM (inactive) in the assay with A498. The GI50 in the assay on OVCAR-8 is 20.2 µM (inactive); in the assay on OVCAR-5, 29.2 µM (inactive); with SNB-75, 24.8 µM (inactive); in the assay with CAKI-1 it was 93.1 µM (inactive); with NCI/ADR-RES, > 100 µM (inactive); in the assay on RXF 393, 24 µM (inactive). The GI50 is 68.7 µM (inactive) in the assay on SF-268; 40.9 µM (inactive) with U-251; 51.6 µM (inactive) in the assay on EKVX; > 100 µM (inactive) in the assay on OVCAR-4; > 100 µM (inactive) in the assay on PC-3; 36.6 µM (inactive) with 786-0.
As to `COC(=O)c1ccc(NCC2=CC(=O)C=CC2=O)cc1`, the GI50 in the assay on CCRF-CEM is 1.67 µM (inactive); in the assay with IGROV-1, 16.7 µM (inactive); in the assay with UACC-62, 14.6 µM (inactive); in the assay on ACHN, 14 µM (inactive); in the assay with Malme-3M, 4.55 µM (inactive); with HCT-116, 3.74 µM (inactive). Also, the GI50 was 14.5 µM (inactive) in the assay on A498; 13.9 µM (inactive) with OVCAR-8; 16.7 µM (inactive) with OVCAR-5; 16.3 µM (inactive) in the assay with SNB-75; 2.4 µM (inactive) with CAKI-1; 4.38 µM (inactive) with NCI/ADR-RES. Moreover, the GI50 is 13.7 µM (inactive) in the assay on SF-268; 13.6 µM (inactive) in the assay on U-251; 10.6 µM (inactive) in the assay on EKVX; 12.4 µM (inactive) in the assay with OVCAR-4; 12.6 µM (inactive) in the assay with PC-3; 2.46 µM (inactive) in the assay with 786-0.
In the case of `NC1=NN(c2ccccc2)C(=O)C1/C(=N\NC(=O)c1cc2ccccc2cc1O)C(=O)Nc1ccc(Cl)c(Cl)c1` (stereo not given), the GI50 with CCRF-CEM was 10.1 µM (inactive); with IGROV-1, 28.4 µM (inactive); in the assay on UACC-62, 17.7 µM (inactive); with ACHN, 28.3 µM (inactive); with Malme-3M, 33 µM (inactive); in the assay on HCT-116, 35.2 µM (inactive). The GI50 was 49.8 µM (inactive) with A498; 17.3 µM (inactive) in the assay with OVCAR-8; 44.6 µM (inactive) in the assay with OVCAR-5; 31.2 µM (inactive) in the assay on SNB-75; 54.5 µM (inactive) in the assay on CAKI-1; 49.2 µM (inactive) in the assay on RXF 393. Further, the GI50 was 22.9 µM (inactive) with SF-268; 33 µM (inactive) with U-251; 14.4 µM (inactive) with EKVX; 16.3 µM (inactive) in the assay on OVCAR-4; 31.3 µM (inactive) with 786-0.
`CSc1s[s+]c(SC)c1[O-]`: the GI50 was 8.77 µM (inactive) in the assay with CCRF-CEM; 83.6 µM (inactive) with IGROV-1; 14.4 µM (inactive) in the assay on UACC-62; 38.4 µM (inactive) in the assay with ACHN; 16.6 µM (inactive) in the assay with Malme-3M; 17.1 µM (inactive) with HCT-116. The GI50 with A498 is > 100 µM (inactive); in the assay with OVCAR-8 it was 20.1 µM (inactive); with OVCAR-5, > 100 µM (inactive); in the assay with SNB-75, 38.6 µM (inactive); in the assay with CAKI-1 it was 20.7 µM (inactive); in the assay with RXF 393, 21.2 µM (inactive). Besides, the GI50 is 20.9 µM (inactive) in the assay on SF-268; 26.7 µM (inactive) in the assay with U-251; 75.7 µM (inactive) with EKVX; 51.2 µM (inactive) in the assay with OVCAR-4; 16.5 µM (inactive) with 786-0.
For the compound `COC(=O)C1=C(c2ccc3c(c2)OCO3)O[C@H](c2ccc3c(c2)OCO3)[C@H]1COC(C)=O`, the GI50 was 78.9 µM (inactive) with CCRF-CEM; 63.5 µM (inactive) in the assay on IGROV-1; 38.6 µM (inactive) in the assay with UACC-62; 29.4 µM (inactive) in the assay on ACHN; 53.2 µM (inactive) with Malme-3M; 51.5 µM (inactive) in the assay with HCT-116. In addition, the GI50 is 24.6 µM (inactive) in the assay on A498; 45.8 µM (inactive) with OVCAR-8; 39.6 µM (inactive) in the assay on OVCAR-5; 49.5 µM (inactive) in the assay on SNB-75; 27.5 µM (inactive) in the assay on CAKI-1; 40 µM (inactive) in the assay on RXF 393. The GI50 in the assay on SF-268 was 87.5 µM (inactive); with U-251 it was 53 µM (inactive); with EKVX it was 59 µM (inactive); in the assay on OVCAR-4 it was 36.6 µM (inactive); with 786-0, 36.2 µM (inactive).
Turning to `O=C(Cn1c2c(c3ccccc31)CCCC2)NC1CCCCC1`, the GI50 in the assay on CCRF-CEM is > 100 µM (inactive); with IGROV-1, 22.5 µM (inactive); in the assay on UACC-62, 56.4 µM (inactive); with ACHN, > 100 µM (inactive); in the assay with Malme-3M, > 100 µM (inactive); with HCT-116, > 100 µM (inactive). For the same compound, the GI50 in the assay with A498 is > 100 µM (inactive); in the assay with OVCAR-8 it was > 100 µM (inactive); with OVCAR-5 it was 46.8 µM (inactive); in the assay on CAKI-1 it was > 100 µM (inactive); in the assay with NCI/ADR-RES, > 100 µM (inactive); with SF-268, 77.3 µM (inactive). The GI50 with EKVX was > 100 µM (inactive); in the assay with OVCAR-4, 94.2 µM (inactive); in the assay on PC-3, 88.7 µM (inactive); in the assay with 786-0, 69.8 µM (inactive).
Take `NNc1ncc2c(n1)-c1ccccc1OC2`: the GI50 in the assay with CCRF-CEM was 17.3 µM (inactive); with IGROV-1, 31 µM (inactive); with UACC-62, 63.7 µM (inactive); in the assay on ACHN, 42.2 µM (inactive); in the assay with Malme-3M, 51.2 µM (inactive); in the assay with HCT-116, 36.5 µM (inactive). The GI50 in the assay on OVCAR-8 is 44.4 µM (inactive); in the assay on OVCAR-5 it was > 100 µM (inactive); in the assay with SNB-75, 35.6 µM (inactive); in the assay with CAKI-1 it was > 100 µM (inactive); with NCI/ADR-RES, 28 µM (inactive); in the assay on RXF 393 it was > 100 µM (inactive). For the same compound, the GI50 with SF-268 is 41.6 µM (inactive); with U-251, 54.2 µM (inactive); in the assay on EKVX, 49.4 µM (inactive); in the assay on OVCAR-4 it was 67.1 µM (inactive); in the assay with PC-3, 47.2 µM (inactive); in the assay with 786-0, 64.3 µM (inactive).
`Cc1cc2c(cc1C)[n+]([O-])c(C(=O)C/C(=N/NC(=O)CC#N)C(=O)Nc1ccccc1C(F)(F)F)c(C)[n+]2[O-]`: the GI50 is 25.4 µM (inactive) in the assay with CCRF-CEM; > 100 µM (inactive) with IGROV-1; 34 µM (inactive) in the assay with UACC-62; 29.7 µM (inactive) in the assay on ACHN; 3.56 µM (inactive) in the assay with Malme-3M; 4.05 µM (inactive) in the assay with HCT-116. For the same compound, the GI50 with A498 is 52 µM (inactive); with OVCAR-8, 50.8 µM (inactive); with OVCAR-5 it was 62.2 µM (inactive); in the assay with SNB-75, 36.6 µM (inactive); with CAKI-1, 57.7 µM (inactive); in the assay on RXF 393, 77.1 µM (inactive). In addition, the GI50 is 39.9 µM (inactive) in the assay on SF-268; 49.5 µM (inactive) with U-251; 53.1 µM (inactive) in the assay on EKVX; 44 µM (inactive) in the assay on OVCAR-4; 52.8 µM (inactive) in the assay with 786-0.
On to `COc1c2c(cc3nc4ccccc4nc13)CC[C@H](NC(C)=O)c1cc(=O)c(SC)ccc1-2`, for which the GI50 is 0.532 µM (active) in the assay on CCRF-CEM; 0.236 µM (active) with IGROV-1; 0.437 µM (active) in the assay with UACC-62; 4.15 µM (inactive) in the assay with ACHN; 0.288 µM (active) with Malme-3M; 0.46 µM (active) with HCT-116. The GI50 in the assay with A498 was 7.62 µM (inactive); in the assay on OVCAR-8, 1.63 µM (inactive); in the assay on OVCAR-5, 24.5 µM (inactive); in the assay with CAKI-1, 5.62 µM (inactive); in the assay on NCI/ADR-RES it was 12.5 µM (inactive); in the assay on RXF 393, 2.74 µM (inactive). In addition, the GI50 with SF-268 is 1.15 µM (inactive); in the assay with U-251 it was 0.353 µM (active); in the assay on EKVX it was 1.01 µM (active); in the assay on OVCAR-4, 4.27 µM (inactive); in the assay with PC-3 it was 0.614 µM (active); in the assay with 786-0, 0.506 µM (active).
As for `COc1ccc(C#Cn2nnc3ccccc32)cc1`, the GI50 with IGROV-1, in the assay with UACC-62, in the assay with ACHN, with Malme-3M, in the assay on HCT-116 and with A498 was > 100 µM (inactive) each time. Moreover, the GI50 with OVCAR-8 was > 100 µM (inactive); in the assay with OVCAR-5, > 100 µM (inactive); in the assay on CAKI-1, 32.1 µM (inactive); in the assay on NCI/ADR-RES it was > 100 µM (inactive); in the assay on RXF 393, 97.7 µM (inactive); in the assay on SF-268 it was 91.2 µM (inactive). In addition, the GI50 in the assay on U-251 is > 100 µM (inactive); in the assay with EKVX, 32.8 µM (inactive); with OVCAR-4 it was > 100 µM (inactive); in the assay on PC-3 it was 86.7 µM (inactive); with 786-0 it was > 100 µM (inactive).

The record behind these values is ChEMBL document CHEMBL1201862, “PubChem BioAssay data set” (2004).
